Experimental data: patent US20230303553A1, “CDK6/DYRK2 DUAL-TARGET INHIBITOR, AND PREPARATION METHOD THEREFOR AND USE THEREOF” (JIANGSU TASLY DIYI PHARMACEUTICAL CO., LTD., priority 2021, published 2023)
Where a name gives a salt, the structure may show the parent alone.

Molecular target: CDK6 kinase (Homo sapiens (Human), UniProt Q00534)
Test: CDK6 kinase activity, Lance Ultra TR-FRET
Assay type: biochemical

Chain of CDK6 kinase (Q00534 whole entry): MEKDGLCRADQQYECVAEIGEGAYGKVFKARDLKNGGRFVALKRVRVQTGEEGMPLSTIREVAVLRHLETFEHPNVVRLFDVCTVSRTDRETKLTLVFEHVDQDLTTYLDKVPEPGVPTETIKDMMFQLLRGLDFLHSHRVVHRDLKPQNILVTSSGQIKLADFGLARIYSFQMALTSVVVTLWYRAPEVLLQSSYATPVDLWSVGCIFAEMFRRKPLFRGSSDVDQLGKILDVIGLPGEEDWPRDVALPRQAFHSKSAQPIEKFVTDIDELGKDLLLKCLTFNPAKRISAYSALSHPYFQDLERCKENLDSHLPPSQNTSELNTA
Chain of CDK6 kinase (P24385 whole entry partner): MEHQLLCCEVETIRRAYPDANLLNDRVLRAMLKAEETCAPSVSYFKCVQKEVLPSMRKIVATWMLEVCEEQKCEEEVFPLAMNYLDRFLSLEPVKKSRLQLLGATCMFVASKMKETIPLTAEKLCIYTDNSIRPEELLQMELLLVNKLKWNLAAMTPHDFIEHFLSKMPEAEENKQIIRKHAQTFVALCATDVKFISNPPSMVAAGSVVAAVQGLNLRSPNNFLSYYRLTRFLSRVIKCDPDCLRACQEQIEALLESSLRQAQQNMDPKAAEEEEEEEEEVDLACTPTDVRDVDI

Row | Structure (SMILES) | IC50 [nM]
1 | CCN1CCN(Cc2ccc(Nc3ncc(F)c(-c4ccc5ncsc5c4)n3)nc2)CC1 [Example 2, 4-(benzothiazole-6-yl)-N-(5-((4-ethylpiperazine-1-yl)methyl)pyridine-2-yl)-5-fluoropyrimidine-2-amine] | 244
2 | CC(C)(C)OC(=O)N1CCN(Cc2ccc(Nc3ncc(F)c(-c4ccc5ncsc5c4)n3)nc2)CC1 [Example 3, tert-butyl 4-((6-((4-(benzothiazole-6-yl)-5-fluoropyrimidine-2-yl)amino)pyridine-3-yl)methyl)piperazine-1-carboxylate] | 272
3 | Fc1cnc(Nc2ccc(CN3CCNCC3)cn2)nc1-c1ccc2ncsc2c1 [Example 4, 4-(benzothiazole-6-yl)-5-fluoro-N-(5-(piperazine-1-ylmethyl)pyridine-2-yl)pyrimidine-2-amine hydrochloride] | 268
4 | CC(C)(C)OC(=O)N1CCN(c2ccc(Nc3ncc(F)c(-c4ccc5ncsc5c4)n3)nc2)CC1 [Example 7, tert-butyl 4-(6-((4-(benzothiazole-6-yl)-5-fluoropyrimidine-2-yl)amino)pyridine-3-yl)piperazine-1-carboxylate] | > 10000
5 | CCOC(=O)N1CCN(Cc2ccc(Nc3ncc(F)c(-c4ccc5ncsc5c4)n3)nc2)CC1 [Example 10, ethyl 4-((6-((4-(benzothiazole-6-yl)-5-fluoropyrimidine-2-yl)amino)pyridine-3-yl)methyl)piperazine-1-carboxylate] | 169
6 | CCN1CCN(Cc2ccc(Nc3ncc(F)c(-c4ccc5nc(N(C)C)sc5c4)n3)nc2)CC1 [Example 30, 6-(2-((5-((4-ethylpiperazine-1-yl)methyl)pyridine-2-yl)amino)-5-fluoropyrimidine-4-yl)-N,N-dimethylbenzothiazole-2-amine] | 254
7 | CN(C)c1nc2ccc(-c3nc(Nc4ccc(CN5CCN(C(=O)OC(C)(C)C)CC5)cn4)ncc3F)cc2s1 [Example 32, tert-butyl 4-((6-((4-(2-(dimethylamino)benzothiazole-6-yl)-5-fluoropyrimidine-2-yl)amino)pyridine-3-yl)methyl)piperazine-1-carboxylate] | > 10000
8 | CN(C)c1nc2ccc(-c3nc(Nc4ccc(C(=O)N5CCN(C(=O)OC(C)(C)C)CC5)cn4)ncc3F)cc2s1 [Example 34, tert-butyl 4-(6-((4-(2-(dimethylamino)benzothiazole-6-yl)-5-fluoropyrimidine-2-yl)amino)nicotinoyl)piperazine-1-carboxylate] | > 10000

Compounds with a lower IC50, results first:

Row | IC50 [nM] | Structure (SMILES)
9 | 144 | CCN1CCN(C(=O)c2ccc(Nc3ncc(F)c(-c4ccc5ncsc5c4)n3)nc2)CC1 [Example 1, (6-((4-(benzothiazole-6-yl)-5-fluoropyrimidine-2-yl)amino)pyridine-3-yl)(4-ethylpiperazine-1-yl)ketone]
10 | 86 | Cc1nc2ccc(-c3nc(Nc4ccc(C(=O)N5CCN(C(=O)OC(C)(C)C)CC5)cn4)ncc3F)cc2s1 [Example 16, tert-butyl 4-(6-((5-fluoro-4-(2-methylbenzothiazole-6-yl)pyrimidine-2-yl)amino)nicotinoyl)piperazine-1-carboxylate]
11 | 59 | CN(C)c1nc2ccc(-c3nc(Nc4ccc(CN5CCNCC5)cn4)ncc3F)cc2s1 [Example 33, 6-(5-fluoro-2-((5-(piperazine-1-ylmethyl)pyridine-2-yl)amino)pyrimidine-4-yl)-N,N-dimethylbenzothiazole-2-amine hydrochloride]
12 | 41 | CN(C)c1nc2ccc(-c3nc(Nc4ccc(C(=O)N5CCNCC5)cn4)ncc3F)cc2s1 [Example 35, (6-((4-(2-(dimethylamino)benzothiazole-6-yl)-5-fluoropyrimidine-2-yl)amino)pyridine-3-yl)(piperazine-1-yl)ketone hydrochloride]
13 | 142 | CC(C)N1CCN(Cc2ccc(Nc3ncc(F)c(-c4ccc5nc(N(C)C)sc5c4)n3)nc2)CC1 [Example 36, 6-(5-fluoro-2-((5-((4-isopropylpiperazine-1-yl)methyl)pyridine-2-yl)amino)pyrimidine-4-yl)-N,N-dimethylbenzothiazole-2-amine]
